The text below walks through data of patent US5091523A (priority 1990, dated 1992).

Data set [1] concerns MDA-MB-231 human breast tumor cell line. In words: Inhibition of DNA synthesis ([^3 H] deoxythymidine incorporation), MDA-MB-231. The format is cell-based. Conditions: for inhibition of DNA synthesis: MDA-MB-231, pharmacologically relevant concentrations (FIG. 1). From the text:
(§1) Since a major use of analogues would be for the treatment of this disease, in vitro screening against human breast cancer cell lines was investigated. Two cell lines were investigated. […] The MCF-7 cell line retains estrogen receptor expression, has an absolute requirement for estrogen to form tumors in nude mice, responds to antiestrogen therapy and is more representative of tumors with a better prognosis.
(§2) The cytotoxic effects of Mitomycin-C are largely the result of its interactions with DNA. Consequently, the ability of Mitomycin-C and its analogues to inhibit the rate of incorporation of [^3 H] deoxythymidine into DNA was initially determined. Deoxythymidine is an essential precursor for the synthesis of DNA. The experiments were performed as described by Clarke et al., Br. J. Cancer 51: 365-369 (1985).

For data set [2], the system named is MCF-7 human breast tumor cell line. Kind of data set: Inhibition of DNA synthesis ([^3 H] deoxythymidine incorporation), MCF-7. The format is cell-based. Conditions: for inhibition of DNA synthesis: MCF-7, pharmacologically relevant concentrations (FIG. 2).
Source text: as §1, §2

The subject of data set [3] is MDA-MB-231 cells. In words: Inhibition of the rate of cell proliferation. The format is cell-based, human. Conditions: for effect on the rate of cell proliferation / cell population kinetics: MDA-MB-231 (FIG. 3).
Source text: as §1
(§3) The interpretation of the effects of cytotoxic drugs on the rate of cell proliferation is a more difficult endpoint to interpret. For example, a cytotoxic agent may apparently reduce the rate of cell growth by killing a proportion of the cells. Alternatively, all the cells in the population may be growth arrested but not killed. Both of these series of events could produce identical growth curves.

Data set [4] has as its system MDA-MB-231 cells. In words: Anchorage-dependent colony formation. The format is cell-based, human.
Source text: as §1
Consequently, the most accurate methods for determining cell kill measure the ability of a single cell to produce a clone of 50 or more cells (equivalent to six or more divisions). Two clonogenic assays were utilized. The anchorage-dependent assay provides the cells with a solid plastic substrate for attachment. The experiments were preformed as described by van den Berg et al. (1981), supra.

Data set [5] relates to human breast cancer cell lines. The format is cell-based. Conditions: soft agar; for effect on anchorage-independent colony formation / cell survival: two assays (FIG. 5).
Source text: as §1
The anchorage-independent assay ensures that the cells grow in suspension in a soft agar solution. Thus, cells must retain both their basal reproductive integrity and their ability to grow in suspension. The data in FIG. 5 represents the results of two anchorage-independent colony formation assays. The assays were performed as described by Clarke et al., J. Endocrinol. 122: 331-340 (1989).

The test system of data set [6] is human breast cancer cell lines. In words: Conclusion over all four in vitro endpoints. The format is cell-based.
Source text: as §1, §2, §3
Consequently, the most accurate methods for determining cell kill measure the ability of a single cell to produce a clone of 50 or more cells (equivalent to six or more divisions). […]

Data set [7] in a line: Host toxicity (preliminary data). The format is in vivo, mice. Conditions: for mortality: mouse, in vivo, one ip injection, read-out: fatalities. From the text: Further, in vivo testing will be performed in two parts. Firstly, the host toxicity of the analogues in comparison with the parent drug will be tested. The concentration required to kill approximately 10% of a population of mice will then be determined. Histopathological analysis will determine the effect of drug treatment on tissues and organs. Analysis of white blood cell counts will provide information on hematopoietic toxicity. […] 80% and 100% fatalities were observed following one intraperitoneal injection of 30 and 40 mg/kg MC-77 respectively.

Data set [8] deals with Gram-negative strain of bacteria (HB101). In words: Antibacterial activity, agar dilution M.I.C. (Example 12, Table 4). The data set is classed as cell-based. Conditions: read-out: M.I.C. Gram-negative Bacteria. The procedure:
Minimum inhibition concentration (M.I.C.) against a Gram-negative strain of bacteria (HB101) was estimated by the dilution method, with graded concentrations of drug added to agar at 37°-40° C. […] The agar, containing drug, quickly solidified at room temperature, and the bacteria were plated immediately.

The test system of data set [9] is P388 leukemia. Kind of data set: Murine P388 leukemia antitumor activity (Example 14, Table 5). The data set is classed as in vivo, murine (CD2F1 male mice). From the text:
T is the mean survival days of mice receiving drug=treated mice
C is the mean survival days of the mice receiving drug vehicle.

Data set [10] concerns P388 leukemia. Conditions: cited from earlier work.
Data set [11] has as its system murine and human neoplasms. Conditions: preclinical and clinical studies; cited from earlier work.
The subject of data set [12] is bone marrow. Conditions: preclinical and clinical studies; cited from earlier work.
Data set [13] deals with metastatic breast cancer. Conditions: cited from earlier work.
The test system of data set [14] is P388 leukemia. In words: Murine P388 leukemia antitumor activity (Example 11, Table 2). The format is in vivo, murine (CD2F1 male mice). Conditions: for % ILS (percentage increased life span): Day 1, P388 leukemia; for Mean Survival: control 10.0. The procedure: The murine P388 leukemia system, maintained intraperitoneally in female DBA/2 mice, was used to evaluate antitumor activity.
The P388 antileukemic activity of the test compound was assessed by mean survival days and percentage increased life span (ILS). The % ILS was calculated as follows: […]
where T is the mean survival days of the treated mice and C is the mean survival days of the untreated mice.

For data set [15], the system named is peripheral leukocyte (WBC). Kind of data set: In vivo murine WBC depression / bone marrow toxicity (Table 3). More on the design: species or system normal CD2F1 male mice. The procedure: Blood samples obtained were diluted in 9.98 ml of Isoton (a neutral, isotonic buffer solution) and counted in a Coulter counter after lysis with Zapoglobin (an enzyme solution which lyses red blood cells, but not white blood cells). WBC counts are expressed as a percentage of values from control mice receiving drug vehicle only.

Data set [16] in a line: Weight loss resultant from drug toxicity (Example 14, Table 5).
Method: Each compound was administered intraperitoneally to groups of CD2F1 male mice on Day 1 following intraperitoneal implantation of 1×10^6 P388 leukemia cells.
Weight loss resultant from drug toxicity was also determined.

Values after ≈ are worked out from the molar mass of the structure shown. Where two headings read alike, the source gives them in different places.

With `CO[C@@]12[C@H](COC(N)=O)C3=C(C(=O)C(C)=C(Nc4ccc(O[C@@H]5O[C@H](COC(C)=O)[C@@H](OC(C)=O)[C@H](OC(C)=O)[C@H]5OC(C)=O)cc4)C3=O)N1C[C@@H]1N[C@@H]12` [MC-77, 7-{[4-(2,3,4,6-tetra-O-acetyl-β-D-glucopyranosyl)oxyphenyl]amino}-9-methoxymitosane], the “inhibition of DNA synthesis compared with the parent compound” value in data set [1] (MDA-MB-231, equimolar concentrations, vs Mitomycin-C) is “two to five fold greater inhibition of DNA synthesis”; in [2] (MCF-7, equimolar concentrations, vs Mitomycin-C), “two to five fold greater inhibition of DNA synthesis”. The “inhibition of DNA synthesis” value is “significant and dose dependent inhibition of DNA synthesis” in data set [1]; “significant and dose dependent inhibition of DNA synthesis” in data set [2]. Besides, the “effect on the rate of cell proliferation / cell population kinetics” value in data set [3] was “significantly inhibited the rate of cell proliferation”. Also, the “cell number relative to starting cell number” value in data set [3] (MDA-MB-231, 1.5 uM) is on record as “reduced cell number below starting cell number”. In addition, in data set [4] (MDA-MB-231, 0.25 uM), the “reduction in anchorage-dependent colony forming ability” value is listed as “significant reduction in colony forming ability”. Moreover, in [4] (MDA-MB-231, 0.25 uM, vs equimolar Mitomycin-C, estimated), the “inhibition of anchorage-dependent colony formation compared with Mitomycin-C” value is given as “approximately two to five fold greater”. Also, in data set [5], the “effect on anchorage-independent colony formation / cell survival” value is listed as “dose dependent reductions in cell survival”. Moreover, the “cytotoxicity in anchorage-independent assay compared with Mitomycin-C” value in data set [5] (vs Mitomycin-C) is “two to five fold more cytotoxic”. Besides, the “cytotoxic potential compared with the parent drug (all four endpoints)” value in [6] (vs Mitomycin-C) was “marked improvement in the cytotoxic potential of between two and five fold”. The “fold less toxic than the parent drug” value in data set [7] (inconclusive preliminary data, vs Mitomycin-C) is listed as “up to two fold less toxic than the parent drug”. Besides, the mortality in [7] (30 mg/kg, preliminary, one experiment) was 80%; in [7] (40 mg/kg, preliminary, one experiment) it was 100%. In addition, in data set [7] (preliminary), the “toxicity compared with Mitomycin-C” value is “no more toxic when compared with Mitomycin-C”. Also, in data set [7] (preliminary, one experiment), the “dose response curve for toxicity” value was “retained the steep dose response curve for toxicity”.
In the case of `CO[C@@]12[C@H](COC(N)=O)C3=C(C(=O)C(C)=C(NCCCC(=O)N[C@@H]4O[C@H](COC(C)=O)[C@@H](OC(C)=O)[C@H](OC(C)=O)[C@H]4NC(C)=O)C3=O)N1C[C@@H]1N[C@@H]12` [MC-62, 7-{3-[(2-acetamido-3,4,6-tri-O-acetyl-β-D-glucopyranosyl)-amino]carbonylpropylamino}-9-methoxymitosane], the “potency in inhibition of DNA synthesis relative to Mitomycin-C and MC-77” value was “significantly less potent than both Mitomycin-C and MC-77” in [1] (MDA-MB-231); “significantly less potent than both Mitomycin-C and MC-77” in data set [2] (MCF-7). For the same molecule, the “effect on the rate of cell proliferation / cell population kinetics” value in data set [3] was “failed to markedly influence the rate of MDA-MB-231 growth”. Also, in data set [4] (MDA-MB-231 (FIG. 4)), the “effect on anchorage-dependent colony formation” value was “did not significantly influence colony formation”. Moreover, the “effect on anchorage-independent colony formation / cell survival” value in data set [5] is listed as “consistently fails to influence colony formation”. In addition, the “antineoplastic potential (all four endpoints)” value in data set [6] was “significantly reduced antineoplastic potential”.
For `CO[C@@]12[C@H](COC(N)=O)C3=C(C(=O)C(C)=C(N)C3=O)N1C[C@@H]1N[C@@H]12` [Mitomycin C, mitomycin C, reference compound], the MIC in [8] (HB101, agar, 24 hours at 37° C.) was 0.3 to 0.5 µg/mL (≈ 0.897 to 1.5 µM). Further, the “inhibition of DNA synthesis” value in [1] is “significant and dose dependent inhibition of DNA synthesis”; in [2] it was “significant and dose dependent inhibition of DNA synthesis”. Also, the “effect on the rate of cell proliferation / cell population kinetics” value in data set [3] is “significantly inhibited the rate of cell proliferation”. The “reduction in anchorage-dependent colony forming ability” value in [4] (MDA-MB-231, 0.25 uM) is given as “significant reduction in colony forming ability”. In addition, the “effect on anchorage-independent colony formation / cell survival” value in data set [5] is reported as “dose dependent reductions in cell survival”. In data set [9] (5 mg/kg ip), the “% ILS” value is given as 83. Also, the “optimal single ip P388 therapeutic dose” value in [10] is 4.5 to 5.5 mg/kg. In [11], the “activity against murine and human neoplasms” value was “activity against a variety of murine and human neoplasms”. Also, the bone marrow toxicity result in data set [12] is on record as “severe, delayed bone marrow toxicity”. Besides, the “objective responses in patients” value in [13] was “significant percentage of objective responses”.
Turning to `CO[C@@]12[C@H](COC(N)=O)C3=C(C(=O)C(C)=C(N[C@H]4C(O)O[C@H](CO)[C@@H](O)[C@@H]4O)C3=O)N1C[C@@H]1N[C@@H]12` (some centres unmarked) [N^7-(2-deoxyglucopyranosyl)mitomycin C], in data set [14] (5 mg/kg ip), the “% ILS (percentage increased life span)” value was determined as 42% and the “Mean Survival” value was 14.2 days. For the same molecule, in data set [14] (13.5 mg/kg ip), the “% ILS (percentage increased life span)” value amounted to 61% and the “Mean Survival” value was determined as 16.1 days. For the same molecule, the “activity against the murine P388 tumor system” value in [14] (summary) is listed as “significant activity against the murine P388 tumor system”. Also, the “WBC Count on Day 3 (as percent of control)” value in data set [15] (13.5 mg/kg ip, normal CD2F1 male mice, Day 3) is 94%. In data set [15] (summary, at active doses), the “bone marrow toxicity as determined by depression of peripheral leukocyte (WBC) count” value was “no significant bone marrow toxicity”. Besides, in data set [8] (24 h), the MIC was in the range of 1.66 to 3.3 µg/mL (≈ 3.34 to 6.65 µM).
As to `CO[C@@]12[C@H](COC(N)=O)C3=C(C(=O)C(C)=C(Nc4ccc(OP(=O)(O)O)cc4)C3=O)N1C[C@@H]1N[C@@H]12` [N^7-(4-phosphatophenyl)mitomycin C], in data set [9] (15 mg/kg ip), the “% ILS” value was found to be 84. In addition, in data set [9] (30 mg/kg ip), the 30-day survivor was 1/5 and the “% ILS” value is greater than 150. Further, the weight loss entry in [16] (15 mg/kg ip) is reported as “No weight loss”. In addition, the Average weight loss in data set [16] (30 mg/kg ip) came to 8%. In addition, the “body weight decrease for all mice” value in [16] (45 mg/kg ip, by Day 6 post-drug injection) is reported as 20-24%.
